Data as given in publication PMC9234961 (Journal of Medicinal Chemistry, 2022).
≈ marks a conversion by molar mass, not a printed value. Where “and” joins values, the source holds several entries; their conditions need not be identical. Equal values may be shown once. Read-outs that look alike come from different tables or passages of the source.

Experiments:
[1] = molecular target: endogenous BCL6 in OCI-Ly1 cells (Homo sapiens, UniProt P41182); test: cell-based; conditions: for degradation of BCL6 (in words): OCI-Ly1 MSD assay; for MSD degrader assay [OCI-Ly1] Dmax: mean maximal degradation of BCL6; for MSD degrader assay [OCI-LY1] pDC50 mean: mean of replicates
[2] = Microsomal clearance assay (MLM); format: in vitro ADME; conditions: female, CD1, pH 7.4; mouse liver microsomes, 1 μM compound
Protocol: 6. Supplementary experimental: in vitro DMPK assays
6.1 Microsomal clearance assay
Microsomal clearance was determined in female CD1 mice, female Sprague–Dawley rats, and mixed gender human liver microsomes obtained from BioIVT (Peterborough, U.K.) following incubation of 1 μM compound at 37 °C in 0.5 mg/mL microsomal protein, 3 mmol/L MgCl2, 1 mmol/L NADPH, 2.5 mmol/L and 10 mmol/L phosphate buffer (pH 7.4) (all purchased from Sigma-Aldrich, Gillingham, U.K). Reactions were started by addition of the cofactors following 10 min preincubation of microsomes with test compound and were terminated at −1, 0, 5, 10, 15, and 30 min with three volumes of ice-cold methanol containing internal standard. Samples were centrifuged at 2800g for 30 min at 4 °C and the supernatants analyzed.
Control incubations were prepared as above with omission of cofactors. Compound measurements were […]
separation with a 3 min gradient of 0.1% formic acid in methanol on a Kinetex C18, 50 × 2.1 mm 2.6 μm UPLC column (Phenomenex, Macclesfield, UK). […]

[3] = logD7.4 assay (Chrom log D method); format: physicochemical; conditions: reversed-phase HPLC on Phenomenex Luna C8 column, pH 7.4, read-out: Measured logD7.4
Protocol: Calibration, validation and in-house compounds were prepared at 1mM in 10% DMSO / 90% Trizma solution (100mM Trizma in 75/25 methanol/water). 3 µL standard injections (with needle wash) of all calibration, validation and in-house samples were made onto a Phenomenex Luna C8 column (3µm, 100 x 4.6 mm, 100A, Phenomenex, Torrence, USA). Chromatographic separation at 30°C was carried out using […]
2 mL/min. The gradient was held at 0:100 water:organic for 0.8 minutes, then returned to the starting conditions of 95:5 water:organic for 0.2 minutes. The column was re-equilibrated for 5 minutes at the […]

NMR solubility assay = format: physicochemical; conditions: kinetic solubility by NMR in HEPES buffer at pH 8, 4% DMSO; read-out: Aq. Sol.
Protocol: 4. Supplementary experimental: physicochemical assays
0.5 mM TCEP, 10% D2O) was pipetted into the same well and mixed by up-down pipetting 3 times to create […]
It was then separated by centrifugation (1000 rpm
The plate was then sealed and incubated at room temperature for 20 hours, […]
165 µL of the supernatant was transferred to a 3 mm NMR tube (Bruker, Part No. Z112272) using liquid handler SamplePro Tube SJ S (Bruker). The concentration of the solubilized compound in solubility sample is measured by quantitative 1H-NMR using a single external standard (200 µM caffeine (Sigma, C1778) in PBS (pH 7.4) with 1% DMSO-d6).
The detail of the NMR method is as following: NMR data was collected on a Bruker Avance Neo 600 spectrometer equipped with a 5 mm TCI-CryoProbe. The 1H spectrum was referenced to the internal deuterated solvent. The operating frequency for 1H was 600 MHz. All NMR data were acquired at the […]
1H-NMR spectrum was acquired using a Bruker standard 1D lc1pngppsf2 pulse sequence with 32 scans.
The sweep width was 6.2 ppm with O1P set to 8.8 ppm, and the FID contained 16k time-domain data points. Relaxation delay was set to 20 sec. Water signal was suppressed. […]

human BCL6 BTB domain [4] = molecular target: T1, human BCL6 BTB domain (Homo sapiens, UniProt P41182); conditions: for BCL6 TR-FRET pIC50 mean: mean of replicates
Protocol: (§1) Assays were performed in a 384-well black Proxiplate (Perkin Elmer) containing 1 nM Trx-6xHis-BCL6 (in
(§2) anti-6xHis-Terbium cryptate (CisBio Bioassays, France), in assay buffer (25 mM Hepes pH8, 100 mM NaCl,
(§3) 0.05% Tween20, 0.5 mM TCEP, 0.05% bovine serum albumin). Test compounds in DMSO or DMSO alone
(§4) were added to the wells using an ECHO550 acoustic dispenser (Labcyte Inc) to give the appropriate test
(§5) concentration in 0.7% v/v DMSO final. After 2 hours incubation at room temperature the plate was read
(§6) The % inhibition at each concentration was calculated by normalising FRET ratio to the
(§7) appropriate high (DMSO with all reagents) and low (DMSO without BCL6) controls. IC50 values were
(§8) determined using GraphPad Prism 6.0 or Dotmatics (Bishops Stortford, UK) software by fitting the
(§9) normalised data to a sigmoidal four-parameter logistic fit equation.

human BCL6 BTB domain [5] = molecular target: T1, human BCL6 BTB domain; test: biochemical
Protocol: as §1, §2, §3, §4, §5, §6, §7, §8, §9

[6] = OCI-Ly1, read-out: MSD degrader assay [OCI-LY1] Dmax individual replicates, single replicate values
[7] = OCI-Ly1, read-out: MSD degrader assay [OCI-Ly1] Dmax, mean maximal degradation of BCL6, OCI-Ly1 cells, 2 h
[8] = read-out: MSD degrader assay [OCI-LY1] DC50 individual replicates, single replicate values
[9] = read-out: MSD degrader assay [OCI-Ly1] DC50, geometric mean, OCI-Ly1 cells, 2 h incubation
[10] = read-out: BCL6 TR-FRET IC50, geometric mean, BCOR-AF633 peptide, 2 h incubation
[11] = BCL6 TR-FRET IC50 individual replicates, single replicate values
[12] = read-out: BCL6 TR-FRET IC50 individual replicates, single replicate values

SMILES | Dmax [1, 6] [%] | Dmax [1, 7] [%] | degradation of BCL6 (in words) [1] | MSD degrader assay [OCI-Ly1] Dmax ([1]; OCI-Ly1 cells, 2 h) [%] | MSD degrader assay [OCI-LY1] pDC50 mean [1] | DC50 [1, 8] | DC50 [1, 9] [nM] | MSD degrader assay [OCI-LY1] Dmax individual replicates ([1]; single replicate values) | microsomal CLint at 0.5 h, 1 µM [2] [µL/min/mg] | chromatographic logD [3] | solubility kinetic at 20 h (NMR solubility assay) [µM] | BCL6 TR-FRET pIC50 mean (human BCL6 BTB domain [4]) | IC50 (human BCL6 BTB domain [4]; [10]) [nM] | IC50 (human BCL6 BTB domain [5]; [11]) | IC50 (human BCL6 BTB domain [4]; [12]) | IC50 (human BCL6 BTB domain [5]; BCL6 TR-FRET IC50, geometric mean, BCOR-AF633 peptide, 2 h incubation) [nM] | IC50 (human BCL6 BTB domain [5]; BCL6 TR-FRET pIC50 mean, mean of replicates) [nM]
Cn1c(=O)c2c(c3cc(Nc4nc(N5CCC(F)(F)[C@@H](O)C5)ncc4Cl)ccc31)N[C@@H](C1CC1)C(F)(F)CO2 (single isomer, unassigned) [8a] | 60.5 | 59.6 | potently degrading isomer | 60 | 8.1499 | 4.3 nM and 11.6 nM and 7.1 nM | 7.1 | 50.7% and 67.5% | 53 | 3 | 11 (≈ 6.26 µg/mL) | 8.4571 | 3.5 | 3.2 nM and 3.3 nM and 4 nM |  |  | 
Cn1c(=O)c2c(c3cc(Nc4nc(N5CCC(F)(F)[C@H](O)C5)ncc4Cl)ccc31)N[C@@H](C1CC1)C(F)(F)CO2 (single isomer, unassigned) [8b] | < 30 | < 30 | nondegrading isomer | > 30 |  | > 2000 nM | > 2000 |  | 22 | 3 | 13 (≈ 7.4 µg/mL) | 8.3342 | 4.6 |  | 4.8 nM and 4.7 nM and 4.4 nM |  | 
Cn1c(=O)c2c(c3cc(Nc4nc(N5CCC(F)(F)[C@H](CO)C5)ncc4Cl)ccc31)N[C@@H](C1CC1)C(F)(F)CO2 [9b, (S)-10-((5-Chloro-2-((S)-4,4-difluoro-3-(hydroxymethyl)piperidin-1-yl)pyrimidin-4-yl)amino)-2-cyclopropyl-3,3-difluoro-7-methyl-1,2,3,4-tetrahydro-[1,4]oxazepino[2,3-c]quinolin-6(7H)-one] |  | 44.7 | partial degradation | ~45 |  | > 2000 nM | > 2000 | 56.1% and 58.2% and 19.9% | 129 | 3.2 | 6.8 (≈ 3.96 µg/mL) | 8.3907 | 4.1 | 3.4 nM and 3.8 nM and 5 nM | 4.2 nM |  | 
C[C@@H]1C[C@@H](O)CN(c2ncc(Cl)c(Nc3ccc4c(c3)c3c(c(=O)n4C)OCC(F)(F)[C@H](C4CC4)N3)n2)C1 [13a, (S)-10-((5-Chloro-2-((3R,5R)-3-hydroxy-5-methylpiperidin-1-yl)pyrimidin-4-yl)amino)-2-cyclopropyl-3,3-difluoro-7-methyl-1,2,3,4-tetrahydro-[1,4]oxazepino[2,3-c]quinolin-6(7H)-one] | < 30 | < 30 | nondegraders of BCL6 | > 30 |  | > 2000 nM | > 2000 |  | 78 | 3 |  | 8.0053 | 9.9 | 11.4 nM and 8.6 nM | 9.9 nM |  | 
C[C@H]1C[C@H](O)CN(c2ncc(Cl)c(Nc3ccc4c(c3)c3c(c(=O)n4C)OCC(F)(F)[C@H](C4CC4)N3)n2)C1 [13b, (S)-10-((5-Chloro-2-((3S,5S)-3-hydroxy-5-methylpiperidin-1-yl)pyrimidin-4-yl)amino)-2-cyclopropyl-3,3-difluoro-7-methyl-1,2,3,4-tetrahydro-[1,4]oxazepino[2,3-c]quinolin-6(7H)-one] | < 30 | < 30 | nondegraders of BCL6 | > 30 |  | > 2000 nM | > 2000 |  | 446 | 3.1 |  | 8.2236 | 6 | 4.9 nM and 6.4 nM and 6.8 nM |  |  | 
Cn1c(=O)c2c(c3cc(Nc4nc(N5CCC[C@H](O)C5)ncc4Cl)ccc31)N[C@@H](C1CC1)C(F)(F)CO2 [14b, (S)-10-((5-chloro-2-((S)-3-hydroxypiperidin-1-yl)pyrimidin-4-yl)amino)-2-cyclopropyl-3,3-difluoro-7-methyl-1,2,3,4-tetrahydro-[1,4]oxazepino[2,3-c]quinolin-6(7H)-one] | < 30 | < 30 | none was seen | > 30 |  | > 2000 nM | > 2000 |  | 139 |  | 23 (≈ 12.3 µg/mL) |  | 2.5 | 3.1 nM (2×) and 3.2 nM and 2.9 nM | 2.6 nM | 3 | 2.98
Cn1c(=O)n(CCC(C)(C)O)c2cc(Nc3nc(N4CCC(F)(F)C(O)C4)ncc3Cl)ccc21 (stereo not drawn) [compound 3, 5-((5-Chloro-2-(4,4-difluoro-3-hydroxypiperidin-1-yl)pyrimidin-4-yl)amino)-3-(3-hydroxy-3-methylbutyl)-1-methyl-1,3-dihydro-2H-benzo[d]imidazol-2-one] | 81 | 77.5 |  | 78 | 6.5593 | 246 nM and 310 nM | 276 | 74.1% | 35 | 2.3 | 11 (≈ 5.47 µg/mL) | 6.6241 | 238 |  | 227 nM and 247 nM and 239 nM |  | 
Cn1c(=O)n(CCC(C)(C)O)c2cc(Nc3nc(N4CCC(F)(F)C(CO)C4)ncc3Cl)ccc21 (stereo not drawn) [compound 4, 5-((5-Chloro-2-(4,4-difluoro-3-(hydroxymethyl)piperidin-1-yl)pyrimidin-4-yl)amino)-3-(3-hydroxy-3-methylbutyl)-1-methyl-1,3-dihydro-2H-benzo[d]imidazol-2-one] |  |  |  |  |  |  |  |  |  | 2.5 | 294 (≈ 150 µg/mL) |  |  |  |  |  | 
